“Also recorded” adds a separate entry of the source. Read-outs that look alike come from different tables or passages of the source.
Legend:
[1] = test system: −333_CaBP22::GUS; assay: GUS activity after spray-treatment of soil grown seedlings (structure-activity analysis, FIG. 5B, FIG. 8B); type: in vivo, Arabidopsis; conditions: for efficiency in inducing −333_CaBP22::GUS expression (defense inducing activity): 48 hours after spray-treatment, structure-activity analysis
Description: (A) Chemical structures of DCA analogs analyzed. […] Proteins were extracted from 2 week old soil grown Col-0 seedlings 48 hours after spray-treatment with compounds at the indicated concentrations (uM). Means and standard errors calculated from 3 independent replicates. (c) HpNoco2 growth inhibition assay. 2 week old soil grown Col-0 seedlings were spray-infected with HpNoco2 48 hours after treatment with varying concentrations (uM) of each DCA analog. Seedlings were assayed 7 dpi for Peronospora growth (spore counts). 100% inhibition=0 spores.
DCA and the known SA-analog INA are structurally related. To compare their activities and to gain further understanding on structural features required for their defense inducing activities, a structure function analysis (SAR) was performed using multiple derivatives of DCA and INA (FIG. 8A).

[2] = test system: HpNoco2 (virulent Peronospora); assay: HpNoco2 disease resistance assay on soil grown seedlings (spore / sporangiophore counts 7 dpi); type: in vivo, Arabidopsis; conditions: for efficiency in inducing resistance to HpNoco2 (defense inducing activity): infection 48 hours after treatment, structure-activity analysis
Description: (§1) (A) RT-PCR analysis of CaBP22 and WRKY70 expression in Col-0 (wild type) and mutant backgrounds 24 hours after spraying 2 week old seedlings with water (un), 1 mM SA, or 100 μM DCA. ACT8 is shown as loading control. […] (B) Two week old seedlings were sprayed with virulent HpNoco2 24 hours after pre-treatment with 100 uM DCA. Spores were counted 7 days after spray infection. Means and standard errors were calculated from three independent experiments. Mann-Whitney U test (p<0.05) was used to determine significant differences among mutants.
(§2) A: Extent of disease susceptibility/resistance determined by counting the numbers of Peronospora sproangiophores of 17 day old seedlings 7 d after spray-inoculation with 5E4 HpNoco2 spores/ml. 24 h prior to infection with Noco2 the aerial parts of the soil grown seedlings were sprayed with the indicated concentrations of DCA (compound 67) or SA. Three replicates each with at least 30 seedlings per treatment gave similar results. […] Concentrations higher than 100 μM caused cell death, as indicated by reduced GUS staining.
(A) Chemical structures of DCA analogs analyzed. (B) Fluorometric analysis of GUS activities induced by DCA analogs. Proteins were extracted from 2 week old soil grown Col-0 seedlings 48 hours after spray-treatment with compounds at the indicated concentrations (uM). Means and standard errors calculated from 3 independent replicates. (c) HpNoco2 growth inhibition assay. 2 week old soil grown Col-0 seedlings were spray-infected with HpNoco2 48 hours after treatment with varying concentrations (uM) of each DCA analog. Seedlings were assayed 7 dpi for Peronospora growth (spore counts). 100% inhibition=0 spores. Assay was repeated three times with similar results.
DCA induces disease resistance. Time-course experiment with 2-week old Col-0 seedlings that were sprayed with 100 uM of the respective compounds at the indicated times prior to HpNoco2 (3×10^4 spores/ml) spray-infection. Spores were counted 7 dpi.

[3] = test system: PR1; conditions: Wendehenne et al., 1998; Pillonel, 2001; read-out: published EC50 value for PR1 induction; cited from earlier work
[4] = test system: cluster of 131 Arabidopsis genes (Table 1); assay: Affymetrix ATH1 whole genome microarray of induced transcriptional responses; type: in vivo
Description: This transient activity of DCA functionally discriminates it from INA and allows us to precisely correlate molecular event, such as transcriptional changes, with disease resistance. Therefore we performed a set of microarray experiments with Affymetrix ATH1 Arabidopsis whole genome chips profiling DCA- and INA-induced transcriptional responses at 48 h and 6 d post treatment. […] The reference accession numbers and information can be used by one of skill in the art to obtain the sequences and additional information from public databases available at the time of filing.

[5] = test system: Pseudomonas syringae DC3000 (Pst DC3000); assay: Pst DC3000 disease resistance in Arabidopsis seedlings (dip inoculation, cfu); type: in vivo; conditions: 100 uM
Description: (§3) (A &B) 14 day old soil grown Arabidopsis Col-0 seedlings were pre-treated with 100 uM of the indicated chemical then dip inoculated with Pst DC3000. (A) Photos taken 5 dpi. (B) Quantification of Pst DC3000 growth by counting colony forming units (cfu) at day 0 (grey bars) or day 3 (black bars). Significant differences were determined by Mann-Whitney U tests (p<0.05). (C) Pst DC3000 grown in liquid culture with 100 um of the indicated chemicals or 100 ug/ml hygromycin (HYG). OD600 reflecting bacterial density was measured at indicated times (hours) after inoculation. Standard errors were all less than 0.05 so are not visible on the graph. (D) Two week old cherry tomato seedlings sprayed 0.5 mM DCA, 4 mM SA or mock-treated two days prior to swab inoculation with Pst DC3000 (OD600=0.4). Photos were taken 6 days after Pst challenge.

[6] = test system: −333_CaBP22::GUS seedlings; assay: toxic effects on plants after spraying aerial parts of seedlings; type: in vivo
Description: as §2

[7] = test system: CaBP22; assay: semiquantitative RT-PCR of CaBP22 expression; type: in vivo, Arabidopsis
Description: as §1, with “(A) RT-PCR analysis of CaBP22 and WRKY70 expression in Col-0 (wild type) and mutant backgrounds 24 hours after spraying 2 week old seedlings with water (un), 1 mM SA, or 100 μM DCA.” left out
As the CaBP22-induction by DCA is blocked in the wrky70 mutant, this compound can interfere with a signaling component that acts upstream from WRKY70 transcription and either independently of downstream from SA. Based on this DCA targets a WRKY70-dependent branch of the defense signaling network.

[8] = test system: WRKY70; assay: semiquantitative RT-PCR of WRKY70 expression; type: in vivo, Arabidopsis
[9] = test system: Pst DC3000; assay: Pst DC3000 disease symptoms in cherry tomato seedlings (swab inoculation); type: in vivo; conditions: 500 uM, sprayed two days prior to inoculation
Description: as §3

[10] = test system: −333_CaBP22::GUS; assay: −333_CaBP22::GUS reporter induction in one-week old seedlings grown in liquid medium (Xgluc staining / MUG assay); type: in vivo, Arabidopsis; conditions: for EC50: −333_CaBP22::GUS, MUG assay, read-out: EC50 value (effective concentration leading to a half-maximal response)
Description: A: Structure of DCA. B/C: Dose-response curves. One-week old −333_CaBP22::GUS seedlings were grown in liquid medium and incubated with the indicated concentrations of DCA (67) or SA for 24 h prior to Xgluc staining (blue, panel B) or quantitative assays for GUS activity using 4-methyl umbelliferyl-glucuronide (MUG, panel C).
LURP expression appears to be controlled by a multitude of defense regulators including AtWRKY70 and so far unknown transcription factors. […] Thus LURP-promoter/reporter systems are useful tools to screen for defense inducing chemicals. A 333_CaBP22::GUS line was used to screen chemical libraries of the Center for Plant Cell Biology at UC-Riverside for substances that induce activity of this reporter in the absence of pathogens. One week old seedlings of the reporter line grown in 96 well plates with liquid MS medium were treated with library chemicals at a final concentration of 4-20 microM in 0.001% DMSO and stained with X-Gluc to detect GUS activity 24 h later (FIG. 2). The library chemicals were transferred from 384 well plates to the 96 well screening plates by a “96 pin-tool” using a pipetting robot.
Most of the identified −333_CaBP22::GUS-inducers are structurally related to the defense hormone salicylic acid (SA). One of these compounds, 3,5-Dichloroanthranilic acid (DCA, FIG. 3A) to be particularly efficient in inducing −333_CaBP22::GUS expression. The chemical structure of this compound was confirmed by NMR and MS analyses. […] Thus, DCA has a high specificity for its cellular target. Consistent with this the EC50 value (effective concentration leading to a half-maximal response) of DCA is 6 uM (FIG. 3C), which is lower than the published EC50 value for PR1 induction by SA and its functional analog INA (65 and 10 uM, respectively; Wendehenne et al., 1998; Pillonel, 2001).

[11] = test system: Pst DC3000; assay: Pst DC3000 growth in liquid culture (OD600); type: cell-based, Pseudomonas syringae; conditions: 100 um in liquid culture
[12] = most Arabidopsis defense signaling mutants

With `Nc1ccc(Cl)cc1C(=O)O` [5-Chloroanthranilic acid] the “efficiency in inducing −333_CaBP22::GUS expression (defense inducing activity)” value [1] was “reduced defense inducing activities” and the “efficiency in inducing resistance to HpNoco2 (defense inducing activity)” value (“efficiency in inducing resistance” below) [2] was “reduced defense inducing activities”.

In the case of `O=C(O)c1ccccc1` [benzoic acid, reference compound], the “efficiency in inducing −333_CaBP22::GUS expression (defense inducing activity)” value [1] is reported as “nearly completely inactive” and the “efficiency in inducing resistance” value [2] is reported as “nearly completely inactive”.

With `Nc1ccccc1C(=O)O` [anthranilic acid, reference compound] the “efficiency in inducing −333_CaBP22::GUS expression (defense inducing activity)” value [1] was “nearly completely inactive” and the “efficiency in inducing resistance” value [2] was “nearly completely inactive”.

In the case of `O=C(O)c1cccc(Cl)c1` [3-Chlorobenzoic acid, reference compound], the “efficiency in inducing −333_CaBP22::GUS expression (defense inducing activity)” value [1] is reported as 3-Chloroanthranilic acid is more active than 3-Chlorobenzoic acid and the “efficiency in inducing resistance” value [2] is reported as 3-Chloroanthranilic acid is more active than 3-Chlorobenzoic acid.

For `O=C(O)c1ccccc1O` [SA, salicylic acid], the “efficiency in inducing −333_CaBP22::GUS expression (defense inducing activity)” value [1] is listed as “less efficiently than DCA or INA”, the EC50 [3] is listed as 65 µM and the “efficiency in inducing resistance” value [2] is listed as “less efficiently than DCA or INA”.

In the case of `Nc1cccc(Cl)c1C(=O)O` [6-Chloroanthranilic acid, reference compound], the “efficiency in inducing −333_CaBP22::GUS expression (defense inducing activity)” value [1] is reported as “completely inactive” and the “efficiency in inducing resistance” value [2] is reported as “completely inactive”.

In the case of `O=C(O)c1cc(Cl)nc(Cl)c1` [INA, 2,6-dichloroisonicotinic acid, reference compound], the “efficiency in inducing −333_CaBP22::GUS expression (defense inducing activity)” value [1] is listed as “nearly identical”, the EC50 [3] is listed as 10 µM and the “duration of defense-inducing activity” value ([2]; 100 uM, time-course, FIG. 9) is listed as “lasts much longer leading to strong disease resistance for the entire duration of the experiment”. For the same compound, the “efficiency in inducing resistance” value [2] was “nearly identical; also recorded: equally efficient”, the “up-regulation of cluster of 131 genes at 48 h post treatment” value [4] was “significantly up-regulated” and the “up-regulation of cluster of 131 genes at 6 d post treatment” value [4] was “significantly up-regulated”.

For `O=C(O)c1cc(Cl)cc(Cl)c1` [3,5-Dichlorobenzoic acid, reference compound], the “efficiency in inducing −333_CaBP22::GUS expression (defense inducing activity)” value [1] was “DCA is more active than 3,5-Dichlorobenzoic acid” and the “efficiency in inducing resistance” value [2] was “DCA is more active than 3,5-Dichlorobenzoic acid”.

For `Nc1c(Cl)cccc1C(=O)O` [3-Chloroanthranilic acid], the “efficiency in inducing −333_CaBP22::GUS expression (defense inducing activity)” value [1] was “reduced defense inducing activities” and the “efficiency in inducing resistance” value [2] was “reduced defense inducing activities”.

For `Nc1c(Cl)cc(Cl)cc1C(=O)O` [DCA, 3,5-Dichloroanthranilic acid], the “efficiency in inducing −333_CaBP22::GUS expression (defense inducing activity)” value [1] was “nearly identical”, the “reporter gene expression after spraying aerial parts” value ([1]; spraying of 10-100 uM) was “induced reporter gene expression” and the “disease resistance to Pst DC3000” value ([5]; Arabidopsis Col-0) was “triggered disease resistance”. The “suppression of bacterial growth (cfu) compared with SA and INA” value ([5]; day 3) was “more efficiently than SA or the frequently used SA analog INA”, the “resistance to HpNoco2 in npr1 mutant” value ([2]; 100 uM pre-treatment 24 h, npr1 mutant) was “slight reduction” and the “resistance to HpNoco2 in wrky70 mutant” value ([2]; 100 uM pre-treatment 24 h, wrky70 mutant) was “partially reduced”. For the same compound, the “duration of defense-inducing activity” value ([2]; 100 uM, time-course, FIG. 9) was “only transiently active”, the “time after treatment by which strong disease resistance is reached” value ([2]; 100 uM, time-course, FIG. 9) was ≤ 1 h and the “efficiency in inducing resistance” value [2] was “nearly identical; also recorded: equally efficient”. The “concentration giving efficient induction of disease resistance against virulent Peronospora (as low as)” value ([2]; sprayed on aerial parts of soil grown seedlings 24 h prior to HpNoco2) was 10 µM, the “concentrations causing cell death (reduced GUS staining)” value [6] was “higher than 100 μM” and the “endogenous CaBP22 gene expression” value ([7]; 10 uM, wild type) was “activates”. The “CaBP22 expression in most mutants with deficiencies in defense signaling” value [7, 12] was “wild type expression”, the “effect of nahG transgene on induction of CaBP22” value ([7]; nahG (SA-catabolizing enzyme)) was “does not suppress” and the “CaBP22-induction in wrky70 mutant” value ([7]; wrky70 mutant) was “blocked”. For the same compound, the WRKY70 expression ([8]; 10 uM, wild type) was “activates”, the “WRKY70 expression in most mutants with deficiencies in defense signaling” value [8, 12] was “wild type expression” and the “effect of nahG transgene on induction of WRKY70” value ([8]; nahG (SA-catabolizing enzyme)) was “does not suppress”. For the same compound, the “Pst DC3000 mediated disease symptoms in tomato” value [9] was “suppressed Pst DC3000 mediated disease symptoms such as chlorosis”, the EC50 ([10]; Arabidopsis thaliana, 24 h, 24 h) was 6 µM and the “concentration at which active as inducer of −333_CaBP22::GUS” value ([10]; liquid medium, 24 h, FIG. 3B) was 0.1 µM. For the same compound, the “active at x-fold lower concentrations than SA (−333_CaBP22::GUS induction)” value ([10]; versus SA, FIG. 3B) was 10 fold, the EC50 ([10]; 24 h) was 7 µM and the “up-regulation of cluster of 131 genes at 48 h post treatment” value [4] was “significantly up-regulated”. For the same compound, the “up-regulation of cluster of 131 genes at 6 d post treatment” value [4] was “not at 6 d post DCA treatment” and the “growth of Pst DC3000 in in vitro cultures” value [11] was “does not affect growth”.
